Source: ChEMBL document CHEMBL1201862, “PubChem BioAssay data set” (2004)
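Five compound concentrations were applied to cells in 96-well plates for 48 hours; endpoints were derived by simple linear interpolation of the resulting dose-response curve. Abbreviation: GI50, concentration required for 50% inhibition of growth.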 Activity calls are given as the source filed them. No stated cut-off is given here; in the data, active = GI50 up to about 1.1 µM and inactive = higher.

Tests used:
Assay in all cases: inhibition of tumour cell growth, NCI panel, 48 h
SNB-78 = system: SNB-78
SN12C = system: SN12C
HCT-15 = system: HCT-15
SW-620 = system: SW-620
A498 = system: A498
HT-29 = system: HT-29
M14 = system: M14
T47D = system: T47D
CCRF-CEM = system: CCRF-CEM
ACHN = system: ACHN
MCF7 = system: MCF7
UACC-257 = system: UACC-257
MOLT-4 = system: MOLT-4
A549 = system: A549
SF-539 = system: SF-539
BT-549 = system: BT-549
SK-MEL-28 = system: SK-MEL-28
OVCAR-3 = system: OVCAR-3
K562 = system: K562
OVCAR-4 = system: OVCAR-4

SMILES	GI50 (SNB-78)	GI50 (SN12C)	GI50 (HCT-15) [µM]	GI50 (SW-620)	GI50 (A498)	GI50 (HT-29)	GI50 (M14)	GI50 (T47D)	GI50 (CCRF-CEM)	GI50 (ACHN)	GI50 (MCF7)	GI50 (UACC-257)	GI50 (MOLT-4)	GI50 (A549)	GI50 (SF-539)	GI50 (BT-549)	GI50 (SK-MEL-28)	GI50 (OVCAR-3)	GI50 (K562)	GI50 (OVCAR-4)
CCCCCCCCCCC(O)C1CCC(C(O)CCC(O)C2CCC(CCCCCCC[C@H](O)CC3=C[C@@H](C)OC3=O)O2)O1 (stereo not given in full)	14.9 µM (inactive)	> 48.9 µM (inactive)	> 53.1	> 51.4 µM (inactive)	22.2 µM (inactive)	> 100 µM (inactive)	> 100 µM (inactive)	> 10 µM (inactive)	3.48 µM (inactive)	1.2 µM (inactive)	2 µM (inactive)	< 0.0169 µM (active)	2.02 µM (inactive)	15.1 µM (inactive)	26.8 µM (inactive)	0.001 µM (active)	> 51.9 µM (inactive)	18.3 µM (inactive)	–	–
CN(C)CCC1(C2=CCCC2)CC/C(=C\c2ccc(Cl)cc2)C1=O (stereo not given)	9.59 µM (inactive)	11.9 µM (inactive)	5.07	9.4 µM (inactive)	6.25 µM (inactive)	2.95 µM (inactive)	2.01 µM (inactive)	–	2.38 µM (inactive)	11.5 µM (inactive)	–	2.92 µM (inactive)	2.24 µM (inactive)	12.4 µM (inactive)	12.7 µM (inactive)	–	2.49 µM (inactive)	13.7 µM (inactive)	2.58 µM (inactive)	9.46 µM (inactive)
CC(=O)Oc1cccc2c1C(=O)C(Br)(Br)CCC2	17.3 µM (inactive)	5.86 µM (inactive)	5.12	2.81 µM (inactive)	19 µM (inactive)	5.55 µM (inactive)	2.51 µM (inactive)	2.53 µM (inactive)	1.34 µM (inactive)	6.38 µM (inactive)	2.29 µM (inactive)	10.9 µM (inactive)	1.11 µM (active)	17.7 µM (inactive)	9.31 µM (inactive)	2.14 µM (inactive)	10.5 µM (inactive)	6.97 µM (inactive)	3.3 µM (inactive)	1.83 µM (inactive)
